Data on 18 compounds can be found in patent US10745397B2, “1-Substituted 1,2,3,4-tetrahydro-1,7-naphthyridin-8-amine derivatives and their use as EP4 receptor antagonists” (TAKEDA PHARMACEUTICAL COMPANY LIMITED, priority 2015, dated 2020).

The target in one assay is T1, human EP4 receptor (Homo sapiens, UniProt P35408).
T1 construct: expressed in transfected cells; host or cells: FreeStyle293 (HEK293F) cells, transient transfection with pcDNA3.1(+), total membrane fraction
Briefly: hEP4 radioligand binding assay ([3H] PGE2 competitive binding, membrane fractions). Particulars: 300 nM compound; 1 nM [3H] PGE2. From the text: The full-length coding sequences for human EP1 (NM_000955), human EP2 (NM_000956), human EP3 (NM_198717) and human EP4 (NM_000958) were cloned into pcDNA3.1(+) vector (Life Technologies, CA, USA). In order to prepare overexpressed EP 1-4 membrane in Freestyle293 cells (Life Technologies, CA, USA), the pcDNA3.1(+) vector encoding a cDNA of the relevant gene was transiently transfected into FreeStyle293 cells using 293Fectin (Life Technologies, CA, USA) according to the manufacturer instruction manual. After 2 days, cultured cells were centrifuged (1,000×g, 10 min, 4° C.) and pellets homogenized by a probe sonicator (Sonics vibracell, Sonics and Materials Inc., USA; 31% Amp, 5 sec pulse, Imin interval, 4 cycles) in ice-cold 50 mM Tris-HCl buffer (pH 7.5 at 25° C.) containing 0.5 mM EDTA, 250 mM Sucrose and 10 mM MgCl2. Cell homogenates were centrifuged (890×g, 10 min, 4° C.), and the supernatant was recovered. Total membrane fractions were isolated by ultracentrifugation (140,000×g, 60 min, 4° C.). Pellets were re-suspended in the same buffer, and stored at −80° C. until use. The protein concentration in homogenate was determined with the BCA Protein Assay Kit (Pierce Biotechnology, Inc., IL, USA) according to the manufacturer protocol.
The binding affinity of the compounds was evaluated using a competitive radioligand binding assay which measured the specific binding of [3H] PGE2 to the human EP4 receptor. Briefly, varying concentrations of NCEs were incubated with cell membrane fractions generated HEK293F cells transiently transfected with human EP4 receptor as described above. Each reaction consisted of 10 μg membrane protein and NCE in 50 mM Tris-HCl, pH-6.0 by NaOH, 10 mM MgCl2 and 0.5 mM EDTA assay buffer. Radioligand, [3H] PGE2 (American Radiochemicals Inc. Specific Activity 180 Ci/mmol), at a final of 1 nM was added to each reaction where the final assay volume was 200 μL and concentration of DMSO was adjusted to 1%. Appropriate controls included total binding in the assay (vehicle control) and control for non-specific binding. Non-specific binding was evaluated by incubating the hEP4 protein with 10 μM unlabeled PGE2 under the same assay conditions as NCEs. The reaction was incubated at room temperature for 2 hours and terminated by harvesting the reaction contents to a PEI coated GF/C filter plate (PerkinElmer). The plate was washed four times with cold 50 mM Tris-HCl, pH-7.5 wash buffer and dried at 50° C. for 2 hours or at 37° C. overnight. [3H] PGE2 bound to the protein was quantified by the addition of 25 μL of Microscint PS (PerkinElmer) and plate was read on MicroBeta2 liquid Scintillation and luminescence counter (PerkinElmer). Data was analyzed using GraphPad Prism 5 (GraphPad Software Inc., San Diego, Calif.) where non-specific binding was normalized to 0% specific binding of [3]PGE2 and vehicle control (DMSO) was normalized to 100% specific binding of [3]PGE2. Binding affinity of NCEs, Ki, was generated using One site—Fit Ki equation in GraphPad Prism 5.

Assay [1] concerns the target T2, hEP4 (C6 glioma cells overexpressing hEP4) (Homo sapiens, UniProt P35408).
T2 construct: host or cells: C6 glioma cells overexpressing hEP4
As to the kind of experiment: hEP4 cell based assay (cAMP), inhibition of PGE2 induced cAMP, HTRF. The note with it: 1 μM compound, PGE2 at EC80. The method, then:
The functional assay for hEP4 activation and inhibition was carried out via the quantitative determination of agonist, PGE2, induced cAMP response using HTRF in a competitive immunoassay (Cisbio dynamic 2 kit). NCEs at varying concentrations were evaluated for inhibition of PGE2 induced increase in cAMP. Briefly, C6 glioma cells overexpressing hEP4 (Takeda) were cultured in DMEM (low glucose, pyruvate), 10% FBS (Gibco) and PenStep. The cells were harvested on the day of the assay, washed with HBSS+10 mM HEPES (pH 7.4)+0.1% BSA buffer and pre-incubated with varying concentrations of NCE. Each reaction contained 7000 cells and NCEs in HBSS+10 mM HEPES+0.1% BSA assay buffer along with PDE inhibitors IBMX and Ro 20-1724 (final concentration of each inhibitor […]). Following 15 min pre-incubation, the cells were treated with EC80 concentration of agonist PGE2 for 30 min to induce cAMP. Final volume of the assay was 6 μL and DMSO concentration was maintained at 1%. The reaction was terminated with the addition of cAMP labeled with the dye d2 in lysis buffer according to manufacturers' protocol. This was followed by the addition of the anti-cAMP antibody labeled with Cryptate according to the manufacturers' protocol. The reaction was incubated at room temperature in dark for 45 min and the plate was evaluated for fluorescence at 665 nm (FRET) and 620 nm (cryptate emission) on a Flexstation III microplate reader (Molecular Devices, Sunnyvale, Calif.) Ex max: 313 nm; Em1: 620 nm; Em2: 665 nm. Data was analyzed using GraphPad Prism 5 (GraphPad Software Inc., San Diego, Calif.) where cells treated with agonist (EC80) was normalized to 0% inhibition of hEP4 and cells treated with buffer (no agonist) was normalized to 100% inhibition of hEP4. IC50 of NCEs was generated using non-linear regression—Log(inhibitor) vs. response equation in GraphPad Prism 5.
A general note: In TR-FRET formats the signal depends on donor and acceptor labels being close together.

T1 sequence (P35408 whole entry): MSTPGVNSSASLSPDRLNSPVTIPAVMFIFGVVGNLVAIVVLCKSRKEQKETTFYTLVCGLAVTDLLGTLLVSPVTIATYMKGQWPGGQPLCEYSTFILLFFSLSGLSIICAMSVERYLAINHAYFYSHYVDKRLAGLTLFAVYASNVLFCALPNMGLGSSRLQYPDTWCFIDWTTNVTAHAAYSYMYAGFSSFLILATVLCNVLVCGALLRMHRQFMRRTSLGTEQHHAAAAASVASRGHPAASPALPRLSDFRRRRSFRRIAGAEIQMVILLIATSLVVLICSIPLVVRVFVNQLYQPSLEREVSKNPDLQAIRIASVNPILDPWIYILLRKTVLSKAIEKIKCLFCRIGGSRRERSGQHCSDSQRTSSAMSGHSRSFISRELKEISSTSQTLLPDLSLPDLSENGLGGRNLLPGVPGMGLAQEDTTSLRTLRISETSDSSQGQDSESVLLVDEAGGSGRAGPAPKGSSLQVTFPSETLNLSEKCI
T2 sequence (P35408 whole entry): as above

On to `C[C@H](Nc1nccc2c1N(Cc1ccc(Cl)cc1)CCO2)c1ccc(C(=O)O)cc1` [Example B7, 4-[(1S)-1-[[4-[(4-chlorophenyl)methyl]-2,3-dihydropyrido[4,3-b][1,4]oxazin-5-yl]amino]ethyl]benzoic acid], for which the inhibition – broadly, the change of the read-out against control, counted positive when it falls – at 0.3 µM at human EP4 receptor was 99%. The compound also gave an inhibition at 1 µM in assay [1] of 100%.

`C[C@H](Nc1nccc2c1N(Cc1cccc(F)c1)CCO2)c1ccc(C(=O)O)cc1` [Example B8, 4-[(1S)-1-[[4-[(3-fluorophenyl)methyl]-2,3-dihydropyrido[4,3-b][1,4]oxazin-5-yl]amino]ethyl]benzoic acid] displayed an inhibition at 0.3 µM at human EP4 receptor of 97%. The inhibition at 1 µM in assay [1] amounted to 100%.

Compound `C[C@H](Nc1nccc2c1N(Cc1ccc(F)cc1)CCO2)c1ccc(C(=O)O)cc1` [Example B9, 4-[(1S)-1-[[4-[(4-fluorophenyl)methyl]-2,3-dihydropyrido[4,3-b][1,4]oxazin-5-yl]amino]ethyl]benzoic acid] had an inhibition at 0.3 µM at human EP4 receptor of 97%. This compound also returned an inhibition at 1 µM in assay [1] of 100%.

In the case of `Cc1cccc(CN2CCOc3ccnc(N[C@@H](C)c4ccc(C(=O)O)cc4)c32)c1` [Example B10, 4-[(1S)-1-[[4-(m-tolylmethyl)-2,3-dihydropyrido[4,3-b][1,4]oxazin-5-yl]amino]ethyl]benzoic acid], 0.3 µM produced 97% inhibition on human EP4 receptor. Besides, testing at 1 µM in assay [1] gave an inhibition of 100%.

In turn, `Cc1ccc(CN2CCOc3ccnc(N[C@@H](C)c4ccc(C(=O)O)cc4)c32)cc1` [Example B11, 4-[(1S)-1-[[4-(p-tolylmethyl)-2,3-dihydropyrido[4,3-b][1,4]oxazin-5-yl]amino]ethyl]benzoic acid] came in with an inhibition at 0.3 µM on human EP4 receptor of 95%. The compound also yielded an inhibition at 1 µM in assay [1] of 100%.

Compound `COc1cccc(CN2CCOc3ccnc(N[C@@H](C)c4ccc(C(=O)O)cc4)c32)c1` [Example B12, 4-[(1S)-1-[[4-[(3-methoxyphenyl)methyl]-2,3-dihydropyrido[4,3-b][1,4]oxazin-5-yl]amino]ethyl]benzoic acid] showed an inhibition at 0.3 µM at human EP4 receptor of 98%. In assay [1], the inhibition at 1 µM came to 100%.

Regarding `C[C@H](Nc1nccc2c1N(Cc1cc(F)cc(F)c1)CCO2)c1ccc(C(=O)O)cc1` [Example B13, 4-[(1S)-1-[[4-[(3,5-difluorophenyl)methyl]-2,3-dihydropyrido[4,3-b][1,4]oxazin-5-yl]amino]ethyl]benzoic acid], 0.3 µM produced 92% inhibition on human EP4 receptor. The same compound registered an inhibition at 1 µM in assay [1] of 100%.

Regarding `C[C@H](Nc1nccc2c1N(Cc1cccc(C(F)(F)F)c1)CCO2)c1ccc(C(=O)O)cc1` [Example B14, 4-[(1S)-1-[[4-[[3-(trifluoromethyl)phenyl]methyl]-2,3-dihydropyrido[4,3-b][1,4]oxazin-5-yl]amino]ethyl]benzoic acid], at human EP4 receptor, the inhibition at 0.3 µM worked out at 93%. Testing at 1 µM in assay [1] gave an inhibition of 100%.

On human EP4 receptor, `COc1ccc(CN2CCOc3ccnc(N[C@@H](C)c4ccc(C(=O)O)cc4)c32)cc1` [Example B15, 4-[(1S)-1-[[4-[(4-methoxyphenyl)methyl]-2,3-dihydropyrido[4,3-b][1,4]oxazin-5-yl]amino]ethyl]benzoic acid] yielded an inhibition at 0.3 µM of 98%. The compound also registered an inhibition at 1 µM in assay [1] of 99%.

As to `O=C(O)c1ccc(C2(Nc3nccc4c3N(Cc3cccc(F)c3)CCO4)CC2)cc1` [Example B16, 4-[1-[[4-[(3-fluorophenyl)methyl]-2,3-dihydropyrido[4,3-b][1,4]oxazin-5-yl]amino]cyclopropyl]benzoic acid], at 0.3 µM the inhibition at human EP4 receptor was 93%. The same compound returned an inhibition at 1 µM in assay [1] of 88%.

Compound `O=C(O)c1ccc(C2(Nc3nccc4c3N(Cc3cc(F)cc(F)c3)CCO4)CC2)cc1` [Example B17, 4-[1-[[4-[(3,5-difluorophenyl)methyl]-2,3-dihydropyrido[4,3-b][1,4]oxazin-5-yl]amino]cyclopropyl]benzoic acid] had an inhibition at 0.3 µM on human EP4 receptor of 96%. The compound also returned an inhibition at 1 µM in assay [1] of 86%.

`O=C(O)c1ccc(C2(Nc3nccc4c3N(Cc3ccc(F)cc3)CCO4)CC2)cc1` [Example B18, 4-[1-[[4-[(4-fluorophenyl)methyl]-2,3-dihydropyrido[4,3-b][1,4]oxazin-5-yl]amino]cyclopropyl]benzoic acid] had an inhibition at 0.3 µM on human EP4 receptor of 93%. In assay [1], this compound gave an inhibition at 1 µM of 79%.

For the compound `O=C(O)c1ccc(C2(Nc3nccc4c3N(Cc3ccc(Cl)cc3)CCO4)CC2)cc1` [Example B19, 4-[1-[[4-[(4-chlorophenyl)methyl]-2,3-dihydropyrido[4,3-b][1,4]oxazin-5-yl]amino]cyclopropyl]benzoic acid], the inhibition at 0.3 µM at human EP4 receptor stood at 92%. Besides, in assay [1], at 1 µM the inhibition was 81%.

In turn, `O=C(O)c1ccc(C2(Nc3nccc4c3N(Cc3ccc(C(F)(F)F)cc3)CCO4)CC2)cc1` [Example B20, 4-[1-[[4-[[4-(trifluoromethyl)phenyl]methyl]-2,3-dihydropyrido[4,3-b][1,4]oxazin-5-yl]amino]cyclopropyl]benzoic acid] had an inhibition at 0.3 µM on human EP4 receptor of 92%. This compound also came in with an inhibition at 1 µM in assay [1] of 92%.

Take `COc1ccc(CN2CCOc3ccnc(NC4(c5ccc(C(=O)O)cc5)CC4)c32)cc1` [Example B21, 4-[1-[[4-[(4-methoxyphenyl)methyl]-2,3-dihydropyrido[4,3-b][1,4]oxazin-5-yl]amino]cyclopropyl]benzoic acid]: the inhibition at 0.3 µM on human EP4 receptor is 87%. The compound also displayed an inhibition at 1 µM in assay [1] of 87%.

In turn, `O=C(O)c1ccc(C2(Nc3nccc4c3N(Cc3ccccc3)CCO4)CC2)cc1` [Example B22, 4-[1-[(4-benzyl-2,3-dihydropyrido[4,3-b][1,4]oxazin-5-yl)amino]cyclopropyl]benzoic acid] registered an inhibition at 0.3 µM at human EP4 receptor of 80%. For the same compound, in assay [1], at 1 µM the inhibition was 90%.

At human EP4 receptor, `COc1cccc(CN2CCOc3ccnc(NC4(c5ccc(C(=O)O)cc5)CC4)c32)c1` [Example B23, 4-[1-[[4-[(3-methoxyphenyl)methyl]-2,3-dihydropyrido[4,3-b][1,4]oxazin-5-yl]amino]cyclopropyl]benzoic acid] showed an inhibition at 0.3 µM of 100%. The compound further returned an inhibition at 1 µM in assay [1] of 74%.

On to `O=C(O)c1ccc(C2(Nc3nccc4c3N(Cc3cccc(Cl)c3)CCO4)CC2)cc1` [Example B24, 4-[1-[[4-[(3-chlorophenyl)methyl]-2,3-dihydropyrido[4,3-b][1,4]oxazin-5-yl]amino]cyclopropyl]benzoic acid acid], for which the inhibition at 0.3 µM at human EP4 receptor was determined as 100%. For the same compound, the inhibition at 1 µM in assay [1] was 71%.
